Assay results from patent publication US20260364184A1, “COMPOUND BASED ON OXOISOINDOLINYL-SUBSTITUTED TETRAHYDROPYRIMIDINE-DIONE AND USE THEREOF” (GLUETACS THERAPEUTICS (SHANGHAI) CO., LTD., priority 2023, published 2026).

Key:
Format in all cases: cell-based
CDK4 = biological target: T1, CDK4 (Homo sapiens, UniProt P11802+Q96SW2); test: Western blot degradation of CDK4; details: MDA-MB-231 Cell; 24 hours
T1 construct: expression of target proteins in cells; endogenous in cells
Experimental: (§1) Conventional Western blot assay was performed to evaluate the effects of the compounds of the present disclosure on the expression of target proteins in cells.
(§2) (1) Cell Seeding and Protein Harvesting: The selected cells were processed according to the cell seeding procedure and protein harvesting procedure in Table II-2.
(§3) (2) To the collected supernatant, 5×SDS sample loading buffer was added, followed by denaturation at 95 °C for 5 minutes. The denatured samples were then separated by SDS-PAGE electrophoresis on a polyacrylamide gel. Proteins were transferred to a nitrocellulose membrane (0.45 μm NC membrane), blocked with blocking buffer at room temperature for 1 hour, and subjected to antibody incubation and development procedures according to the antibody manufacturer's instructions (Cell Signaling Technology).
(§4) Half-Maximal Degradation Concentration value (the drug concentration required for degrading proteins by 50%, abbreviated as DC50) reads method: comparing the grayscale values of Western blot bands from drug-treated samples with those from blank DMSO-treated controls, and identifying the drug concentration range at which the grayscale value is half that of the DMSO-treated control bands.
(§5) DC50 values can be calculated using ImageJ software to measure grayscale values of Western blot bands from drug-treated samples. The concentration-response curve is fitted to estimate the drug concentration corresponding to half the grayscale value.
(§6) Target protein remaining (%) refers to the percentage of target protein remaining in cells after treatment with protein degrader compounds.
(§7) Calculation method for target protein remaining (%): Use ImageJ software to measure grayscale values of Western blot bands from drug (protein degrader)-treated samples. The grayscale value of drug-treated bands is divided by that of internal control protein bands, and the resulting quotient is normalized to obtain the relative percentage of remaining target protein after protein degrader treatment.
(§8) Target protein degradation rate (%)=1−target protein remaining (%).

CDK6 = biological target: T2, CDK6 (Homo sapiens, UniProt Q00534+Q96SW2); test: Western blot degradation of CDK6; details: MDA-MB-231 Cell; 24 hours
T2 construct: expression of target proteins in cells; endogenous in cells
Experimental: as §1, §2, §3, §4, §5, §6, §7, §8

[1] = Inhibition of RPMI-8226 cell proliferation (CellTiter luminescent viability); details: Homo sapiens; RPMI-8226; 10 nM; read-out: Inhibition Rate at 10 nM (%)
[2] = system: Human B-Cell Lymphoma Cells (RPMI-8226); test: as above; details: RPMI-8226, 500 nM, read-out: Inhibition Rate at 500 nM (%)
[3] = system: Human lung cancer cell line (H292); test: Inhibition of H292 cell proliferation (CellTiter luminescent viability); details: NCI-H292, Table IM1, CDK9 inhibitor-based, 96 hours; for inhibition at 0.01 µM: H292, 10 nM, read-out: Inhibition Rate at 10 nM (%); for inhibition at 0.5 µM: H292, 500 nM, read-out: Inhibition Rate at 500 nM (%)
Experimental: The tumor cells used herein were cultured in a cell culture medium listed in table 3 at 37 °C in an incubator with 5% CO2. Prior to experimentation, all cell lines used were correctly identified by STR profiling, and tested negative for mycoplasma contamination using a mycoplasma detection kit through routine screenings.
The IC50 values of the compounds of the present disclosure (including the compounds in Table 1, Table 2, and Examples 1-468) were determined using the CellTiter-Meiluncell Luminescent Cell Viability Assay Kit from Dalian Meilun Biotech Co., Ltd. The detailed procedure is as follows: Tumor cells were seeded in 96-well cell culture plates at the densities specified in Table 4. On the following day, the test compounds of the present disclosure were subjected to serial dilution. The dilution can be performed according to one of the following two methods: • (1) The first dilution method: The test compounds of the present disclosure (including the compounds in Table 1, Table 2, and Examples 1-468) were subjected to 5-fold serial dilutions starting from a highest concentration of 2000 μM, resulting in a total of 9 concentrations from high to low (2000, 400, 80, 16, 3.2, 0.64, 0.128, 0.0256, 0.00512 μM). Subsequently, 0.5 μL of the test compound dilution was transferred into the 96-well plate containing the cells, with each well containing 100 μL of cell culture medium. […] Into the 96-well plate, the diluted test compounds and corresponding detection reagents were added, resulting in final test compound concentrations of 500 nM and 10 nM, respectively. The experimental procedure is described below using the diluted 2 μM test compound as an example.
0.5 μL of the aforementioned diluted compound of the present disclosure (including the compounds in Table 1, Table 2, and Examples 1-468) was added to the seeded cells in 100 μL of medium, yielding a final test compound concentration of 10 nM. After the cells were treated with the compounds of the present disclosure for a specified period, the cell viability assay reagent was added to the culture medium according to the kit's instructions to determine cell viability. […] All controls were treated using the same procedure as the compounds of the present disclosure. The growth inhibition curves for the compounds of the present disclosure were plotted using Prism GraphPad software, and the IC50 values were calculated therefrom.

T2 sequence (Q00534 whole entry): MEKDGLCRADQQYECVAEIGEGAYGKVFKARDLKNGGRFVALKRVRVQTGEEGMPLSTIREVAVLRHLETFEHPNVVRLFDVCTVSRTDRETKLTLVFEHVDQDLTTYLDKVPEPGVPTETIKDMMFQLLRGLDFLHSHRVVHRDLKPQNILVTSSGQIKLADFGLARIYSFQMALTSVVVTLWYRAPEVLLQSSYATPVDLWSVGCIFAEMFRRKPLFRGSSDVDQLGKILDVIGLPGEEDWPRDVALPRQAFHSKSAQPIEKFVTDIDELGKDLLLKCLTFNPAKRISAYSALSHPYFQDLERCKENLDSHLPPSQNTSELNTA
T2 sequence (Q96SW2 whole entry): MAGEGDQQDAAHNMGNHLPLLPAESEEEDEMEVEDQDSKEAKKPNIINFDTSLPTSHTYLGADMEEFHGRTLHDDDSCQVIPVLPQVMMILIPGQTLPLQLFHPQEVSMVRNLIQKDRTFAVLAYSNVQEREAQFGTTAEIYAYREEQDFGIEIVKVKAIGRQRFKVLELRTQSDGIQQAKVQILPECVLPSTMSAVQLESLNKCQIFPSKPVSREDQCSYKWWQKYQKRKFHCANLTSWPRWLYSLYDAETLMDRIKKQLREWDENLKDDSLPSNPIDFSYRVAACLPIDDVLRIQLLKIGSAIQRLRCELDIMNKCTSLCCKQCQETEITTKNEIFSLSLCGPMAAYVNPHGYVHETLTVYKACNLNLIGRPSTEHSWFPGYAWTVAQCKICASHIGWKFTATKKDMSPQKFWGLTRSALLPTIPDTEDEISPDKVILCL
T2 sequence (Q16531 whole entry partner): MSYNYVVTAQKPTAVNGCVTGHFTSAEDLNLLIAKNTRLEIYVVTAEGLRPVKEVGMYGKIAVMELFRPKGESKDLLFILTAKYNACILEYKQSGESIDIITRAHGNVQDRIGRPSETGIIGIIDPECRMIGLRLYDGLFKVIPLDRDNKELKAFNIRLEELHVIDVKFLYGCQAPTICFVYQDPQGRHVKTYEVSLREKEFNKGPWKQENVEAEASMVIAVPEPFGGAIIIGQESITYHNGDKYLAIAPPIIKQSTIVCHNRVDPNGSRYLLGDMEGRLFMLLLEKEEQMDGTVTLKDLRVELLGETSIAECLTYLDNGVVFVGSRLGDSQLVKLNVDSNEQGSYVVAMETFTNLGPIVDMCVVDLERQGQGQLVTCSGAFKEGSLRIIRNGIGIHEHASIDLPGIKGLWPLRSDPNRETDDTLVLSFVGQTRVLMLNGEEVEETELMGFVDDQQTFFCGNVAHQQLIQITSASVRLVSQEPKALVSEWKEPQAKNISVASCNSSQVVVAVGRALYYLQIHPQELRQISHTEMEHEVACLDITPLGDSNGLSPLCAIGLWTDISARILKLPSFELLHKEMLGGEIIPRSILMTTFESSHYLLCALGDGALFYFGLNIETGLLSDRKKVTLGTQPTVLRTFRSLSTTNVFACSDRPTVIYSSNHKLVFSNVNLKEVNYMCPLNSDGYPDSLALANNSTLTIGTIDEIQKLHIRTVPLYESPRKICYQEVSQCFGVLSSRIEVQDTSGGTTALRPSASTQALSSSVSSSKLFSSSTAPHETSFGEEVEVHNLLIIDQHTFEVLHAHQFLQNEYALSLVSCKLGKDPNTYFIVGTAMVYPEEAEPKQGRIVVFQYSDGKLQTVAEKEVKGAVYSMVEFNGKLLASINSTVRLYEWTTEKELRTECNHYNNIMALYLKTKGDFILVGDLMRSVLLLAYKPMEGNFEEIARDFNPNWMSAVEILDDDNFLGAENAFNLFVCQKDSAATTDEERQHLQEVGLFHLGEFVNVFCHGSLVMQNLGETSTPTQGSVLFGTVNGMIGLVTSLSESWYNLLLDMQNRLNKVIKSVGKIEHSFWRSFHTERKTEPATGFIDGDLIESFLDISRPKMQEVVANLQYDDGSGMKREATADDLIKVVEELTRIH
T1 sequence (P11802 whole entry): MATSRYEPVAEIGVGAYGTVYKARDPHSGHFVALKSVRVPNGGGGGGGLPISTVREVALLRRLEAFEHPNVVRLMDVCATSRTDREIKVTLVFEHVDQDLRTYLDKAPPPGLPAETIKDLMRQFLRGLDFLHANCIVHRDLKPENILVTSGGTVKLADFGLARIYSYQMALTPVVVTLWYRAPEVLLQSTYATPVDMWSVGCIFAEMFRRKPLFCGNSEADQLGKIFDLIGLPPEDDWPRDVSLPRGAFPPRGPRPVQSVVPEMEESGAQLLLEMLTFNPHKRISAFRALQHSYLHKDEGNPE
T1 sequence (Q96SW2 whole entry): as the sequence (Q96SW2 whole entry) above
T1 sequence (Q16531 whole entry partner): as the sequence (Q16531 whole entry partner) above

Structure (SMILES)	Degradation of substrate protein CDK4 (substrate protein remaining %) (CDK4)	Degradation of substrate protein CDK6 (substrate protein remaining %) (CDK6)	inhibition at 0.01 µM [1] [%]	inhibition at 0.5 µM [2] [%]	inhibition at 0.01 µM [3] [%]	inhibition at 0.5 µM [3] [%]
CN(C)C(=O)c1cc2cnc(Nc3ccc(N4CCC(CN5CCN(c6ccc7c(c6F)C(=O)N(N6CCC(=O)NC6=O)C7=O)CC5)CC4)cn3)nc2n1C1CCCC1 [GT-05203, 7-cyclopentyl-2-((5-(4-((4-(2-(2,4-dioxotetrahydropyrimidin-1(2H)-yl)-4-fluoro-1,3-dioxoisoindolin-5-yl)piperazin-1-yl)methyl)piperidin-1-yl)pyridin-2-yl)amino)-N,N-dimethyl-7H-pyrrolo[2,3-d]pyrimidine-6-carboxamide]	B (80%<substrate protein remaining %≤100%)	A (0%≤substrate protein remaining %≤80%)	–	–	–	–
Cc1nc2c(F)cc(-c3nc(Nc4ccc(N5CCN(Cc6ccc7c(c6)C(=O)N(N6CCC(=O)NC6=O)C7=O)CC5)cn4)ncc3F)cc2n1C(C)C [GT-06673, 2-(2,4-dioxotetrahydropyrimidin-1(2H)-yl)-5-((4-(6-((5-fluoro-4-(4-fluoro-1-isopropyl-2-methyl-1H-benzo[d]imidazol-6-yl)pyrimidin-2-yl)amino)pyridin-3-yl)piperazin-1-yl)methyl)isoindoline-1,3-dione]	B (80%<substrate protein remaining %≤100%)	A (0%≤substrate protein remaining %≤80%)	–	–	–	–
CN(C)C(=O)c1cc2cnc(Nc3ccc(N4CCC(CN5CC6CCC(C5)N6c5ccc6c(c5)C(=O)N(N5CCC(=O)NC5=O)C6=O)CC4)cn3)nc2n1C1CCCC1 [GT-05200, 7-cyclopentyl-2-((5-(4-((8-(2-(2,4-dioxotetrahydropyrimidin-1(2H)-yl)-1,3-dioxoisoindolin-5-yl)-3,8-diazabicyclo[3.2.1]octan-3-yl)methyl)piperidin-1-yl)pyridin-2-yl)amino)-N,N-dimethyl-7H-pyrrolo[2,3-d]pyrimidine-6-carboxamide]	B (80%<substrate protein remaining %≤100%)	A (0%≤substrate protein remaining %≤80%)	–	–	–	–
O=C1CCN(N2Cc3cc(CN4CCN(c5ccc(CC(=O)Nc6cc(C7CCC7)[nH]n6)cc5)CC4)ccc3C2=O)C(=O)N1 [GT-08229, N-(5-cyclobutyl-1H-pyrazol-3-yl)-2-(4-(4-((2-(2,4-dioxotetrahydropyrimidin-1(2H)-yl)-1-oxoisoindolin-5-yl)methyl)piperazin-1-yl)phenyl)acetamide]	–	–	10 to 20	10 to 20	20 to 30	30 to 40
CN(C)C(=O)c1cc2cnc(Nc3ccc(N4CCC(N(C)Cc5ccc6c(c5)C(=O)N(N5CCC(=O)NC5=O)C6=O)CC4)cn3)nc2n1C1CCCC1 [GT-06488, 7-cyclopentyl-2-((5-(4-(((2-(2,4-dioxotetrahydropyrimidin-1(2H)-yl)-1,3-dioxoisoindolin-5-yl)methyl)(methyl)amino)piperidin-1-yl)pyridin-2-yl)amino)-N,N-dimethyl-7H-pyrrolo[2,3-d]pyrimidine-6-carboxamide]	B (80%<substrate protein remaining %≤100%)	A (0%≤substrate protein remaining %≤80%)	–	–	–	–
CN(C)C(=O)c1cc2cnc(Nc3ccc(N4CCC(CN5CCN(c6cc(F)c7c(c6)C(=O)N(N6CCC(=O)NC6=O)C7=O)CC5)CC4)cn3)nc2n1C1CCCC1 [GT-05204, 7-cyclopentyl-2-((5-(4-((4-(2-(2,4-dioxotetrahydropyrimidin-1(2H)-yl)-7-fluoro-1,3-dioxoisoindolin-5-yl)piperazin-1-yl)methyl)piperidin-1-yl)pyridin-2-yl)amino)-N,N-dimethyl-7H-pyrrolo[2,3-d]pyrimidine-6-carboxamide]	B (80%<substrate protein remaining %≤100%)	A (0%≤substrate protein remaining %≤80%)	–	–	–	–
N#CC1(CNc2cccc(-c3cc(NC4CCN(Cc5ccc6c(c5)C(=O)N(N5CCC(=O)NC5=O)C6=O)CC4)ncc3Cl)n2)CCOCC1 [GT-08215, 4-(((5′-chloro-2′-((1-((2-(2,4-dioxotetrahydropyrimidin-1(2H)-yl)-1,3-dioxoisoindolin-5-yl)methyl)piperidin-4-yl)amino)-[2,4′-bipyridin]-6-yl)amino)methyl)tetrahydro-2H-pyran-4-carbonitrile]	–	–	20 to 30	20 to 30	20 to 30	20 to 30
CN(C)C(=O)c1cc2cnc(Nc3ccc(N4CCC(CN5CC6CCC5CN6c5ccc6c(c5)C(=O)N(N5CCC(=O)NC5=O)C6=O)CC4)cn3)nc2n1C1CCCC1 (centres unmarked) [GT-05831, 7-cyclopentyl-2-((5-(4-((5-(2-(2,4-dioxotetrahydropyrimidin-1(2H)-yl)-1,3-dioxoisoindolin-5-yl)-2,5-diazabicyclo[2.2.2]octan-2-yl)methyl)piperidin-1-yl)pyridin-2-yl)amino)-N,N-dimethyl-7H-pyrrolo[2,3-d]pyrimidine-6-carboxamide]	B (80%<substrate protein remaining %≤100%)	A (0%≤substrate protein remaining %≤80%)	–	–	–	–
N#CC1(CNc2nc(-c3cc(NC4CCN(CC5CCN(c6ccc7c(c6)C(=O)N(N6CCC(=O)NC6=O)C7=O)CC5)CC4)ncc3Cl)cs2)CCOCC1 [GT-04719, 4-(((4-(5-chloro-2-((1-((1-(2-(2,4-dioxotetrahydropyrimidin-1(2H)-yl)-1,3-dioxoisoindolin-5-yl)piperidin-4-yl)methyl)piperidin-4-yl)amino)pyridin-4-yl)thiazol-2-yl)amino)methyl)tetrahydro-2H-pyran-4-carbonitrile]	–	–	10 to 20	20 to 30	5 to 10	15 to 20
Cn1ncc(-c2nc(NC3CCN(CC4CCN(c5cccc6c5C(=O)N(N5CCC(=O)NC5=O)C6=O)CC4)CC3)ncc2Cl)c1CC1CC1 [GT-08347, 4-(4-((4-((5-chloro-4-(5-(cyclopropylmethyl)-1-methyl-1H-pyrazol-4-yl)pyrimidin-2-yl)amino)piperidin-1-yl)methyl)piperidin-1-yl)-2-(2,4-dioxotetrahydropyrimidin-1(2H)-yl)isoindoline-1,3-dione]	–	–	20 to 30	10 to 20	5 to 10	20 to 30
O=C1CCN(N2C(=O)c3ccc(N4CCC(CN5CCN(c6ccc(CC(=O)Nc7cc(C8CCC8)[nH]n7)cc6)CC5)CC4)cc3C2=O)C(=O)N1 [GT-08350, N-(5-cyclobutyl-1H-pyrazol-3-yl)-2-(4-(4-((1-(2-(2,4-dioxotetrahydropyrimidin-1(2H)-yl)-1,3-dioxoisoindolin-5-yl)piperidin-4-yl)methyl)piperazin-1-yl)phenyl)acetamide]	–	–	10 to 20	20 to 30	40 to 50	40 to 50
